Target: human NaV 1.8 (Homo sapiens, UniProt Q9Y5Y9)
Test: E-VIPR Assay for Detecting and Measuring NaV Inhibition Properties
Assay type: cell-based
Details: HEK cells expressing a truncated form of human NaV 1.8; HS = human serum; read-out: EVIPR HS IC50
From the text: E-VIPR Assay for Detecting and Measuring NaV Inhibition Properties
Sodium ion channels are voltage-dependent proteins that can be activated by inducing membrane voltage changes by applying electric fields. The electrical stimulation instrument and methods of use, referred to as E-VIPR, are described in International Publication No. WO 2002/008748 A3 and C.-J. Huang et al. Characterization of voltage-gated sodium channel blockers by electrical stimulation and fluorescence detection of membrane potential, 24 Nature Biotech. 439-46 (2006), both of which are incorporated by reference in their entirety. The instrument comprises a microtiter plate handler, an optical system for exciting the coumarin dye while simultaneously recording the coumarin and oxonol emissions, a waveform generator, a current- or voltage-controlled amplifier, and parallel electrode pairs that are inserted into assay plate wells. Under integrated computer control, this instrument passes user-programmed electrical stimulus protocols to cells within the wells of the microtiter plate.
16-20 hours prior to running the assay on E-VIPR, HEK cells expressing a truncated form of human NaV 1.8 with full channel activity were seeded into microtiter 384-well plates, pre-coated with matrigel, at a density of 25,000 cells per well. 2.5-5% KIR2.1 Bacmam virus was added to the final cell suspension before seeding into cell plates. HEK cells were grown in Dulbecco's Modified Eagle's Medium (DMEM) supplemented with 10% FBS (Fetal Bovine Serum, qualified; Sigma #F4135), 1% NEAA (Non-Essential Amino Acids, Gibco #11140), 1% HEPES (Gibco #15630), 1% Pen-Strep (Penicillin-Streptomycin; Gibco #15140) and 5 μg/ml Blasticidin (Gibco #R210-01). Cells were expanded in vented cap cell culture flasks, with 90-95% humidity and 5% CO2.
Reagents and Stock Solutions:
• 100 mg/mL Pluronic F-127 (Sigma #P2443), in dry DMSO • Compound Plates: Corning 384-well Polypropylene Round Bottom #3656 • Cell Plates: 384-well tissue culture treated plates (Greiner #781091-1B) • 2.5-5% KIR 2.1 Bacmam virus (produced in-house), prepared as described in Section 3.3 of J. A. Fornwald et al., Gene Expression in Mammalian Cells Using BacMam, a Modified Baculovirus System, 1350 Methods in Molecular Biology 95-116 (2016), the entire contents of which are incorporated by reference. The concentration used can be dependent on viral titer of each batch. • 5 mM DiSBAC6 (3), a voltage sensitive oxonol acceptor (CAS number 169211-44-3; 5-[3-(1,3-dihexylhexahydro-4,6-dioxo-2-thioxo-5-pyrimidinyl)-2-propen-1-ylidene]-1,3-dihexyldihydro-2-thioxo-4,6(1H,5H)-pyrimidinedione), in dry DMSO. The preparation of DiSBAC6 (3) is analogous to that of DiSBAC4 (3) as described in Voltage Sensing by Fluorescence Resonance Energy Transfer in Single Cells, Gonzalez, J. E. and Tsien, R. Y. (1995) Biophys. J. 69, 1272-1280. • 5 mM CC2-DMPE, a commercially available membrane-bound coumarin phospholipid FRET donor (ThermoFisher Scientific catalog number K1017, CAS number 393782-57-5; tetradecanoic acid, 1,1′-[(1R)-1-[8-(6-chloro-7-hydroxy-2-oxo-2H-1-benzopyran-3-yl)-3-hydroxy-3-oxido-8-oxo-2,4-dioxa-7-aza-3-phosphaoct-1-yl]-1,2-ethanediyl] ester) was prepared in dry DMSO. […]

human NaV 1.8, sequence (Q9Y5Y9 whole entry, looked up): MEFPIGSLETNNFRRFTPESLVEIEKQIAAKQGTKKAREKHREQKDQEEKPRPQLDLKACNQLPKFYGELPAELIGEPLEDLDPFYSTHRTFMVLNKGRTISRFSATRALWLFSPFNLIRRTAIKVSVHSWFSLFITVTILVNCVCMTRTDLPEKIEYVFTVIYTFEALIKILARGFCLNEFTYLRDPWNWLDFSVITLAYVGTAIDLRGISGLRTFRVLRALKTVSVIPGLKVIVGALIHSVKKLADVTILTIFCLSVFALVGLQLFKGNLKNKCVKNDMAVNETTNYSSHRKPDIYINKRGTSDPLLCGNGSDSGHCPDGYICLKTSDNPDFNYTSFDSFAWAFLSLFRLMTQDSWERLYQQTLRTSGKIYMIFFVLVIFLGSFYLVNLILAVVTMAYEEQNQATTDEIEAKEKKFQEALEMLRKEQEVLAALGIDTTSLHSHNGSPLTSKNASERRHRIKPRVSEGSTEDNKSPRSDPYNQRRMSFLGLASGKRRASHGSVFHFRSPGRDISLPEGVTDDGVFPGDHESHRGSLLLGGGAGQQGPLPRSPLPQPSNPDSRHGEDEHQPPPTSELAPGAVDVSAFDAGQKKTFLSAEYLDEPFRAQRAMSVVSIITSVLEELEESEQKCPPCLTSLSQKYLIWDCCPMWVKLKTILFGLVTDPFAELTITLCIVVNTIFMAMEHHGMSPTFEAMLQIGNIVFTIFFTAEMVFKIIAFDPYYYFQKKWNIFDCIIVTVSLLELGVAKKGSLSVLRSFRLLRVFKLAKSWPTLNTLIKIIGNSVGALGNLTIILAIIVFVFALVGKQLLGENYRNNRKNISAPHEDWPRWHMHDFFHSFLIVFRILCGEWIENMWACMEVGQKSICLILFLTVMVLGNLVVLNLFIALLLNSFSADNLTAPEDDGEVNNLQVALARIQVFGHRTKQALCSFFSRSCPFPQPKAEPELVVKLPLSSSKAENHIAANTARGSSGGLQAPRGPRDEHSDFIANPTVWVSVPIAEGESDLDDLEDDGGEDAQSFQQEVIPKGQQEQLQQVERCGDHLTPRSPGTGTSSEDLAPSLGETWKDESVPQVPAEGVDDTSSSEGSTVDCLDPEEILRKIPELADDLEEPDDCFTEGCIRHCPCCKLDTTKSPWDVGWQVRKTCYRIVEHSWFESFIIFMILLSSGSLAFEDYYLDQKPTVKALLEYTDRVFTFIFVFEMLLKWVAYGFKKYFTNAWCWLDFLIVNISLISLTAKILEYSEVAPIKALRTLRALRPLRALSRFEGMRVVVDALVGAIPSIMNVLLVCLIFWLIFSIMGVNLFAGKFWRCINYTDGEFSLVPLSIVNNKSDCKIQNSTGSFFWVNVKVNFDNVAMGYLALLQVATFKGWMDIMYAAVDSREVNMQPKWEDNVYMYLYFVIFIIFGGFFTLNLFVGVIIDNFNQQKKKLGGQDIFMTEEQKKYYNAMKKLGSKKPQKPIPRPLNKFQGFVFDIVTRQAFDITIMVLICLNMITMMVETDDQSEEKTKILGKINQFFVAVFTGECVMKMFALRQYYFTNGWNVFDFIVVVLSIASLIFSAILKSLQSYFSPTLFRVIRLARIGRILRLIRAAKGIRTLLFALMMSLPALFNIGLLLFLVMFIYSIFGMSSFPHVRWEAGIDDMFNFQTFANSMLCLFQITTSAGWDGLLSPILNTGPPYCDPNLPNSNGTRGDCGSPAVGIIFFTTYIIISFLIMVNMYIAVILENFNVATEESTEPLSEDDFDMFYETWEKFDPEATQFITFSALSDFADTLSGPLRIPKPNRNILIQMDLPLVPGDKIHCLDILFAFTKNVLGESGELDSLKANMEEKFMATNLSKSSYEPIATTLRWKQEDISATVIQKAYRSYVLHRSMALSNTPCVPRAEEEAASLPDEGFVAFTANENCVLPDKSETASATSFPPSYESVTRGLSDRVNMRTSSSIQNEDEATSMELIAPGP

Compound	IC50
COC(=O)c1nccc(NC(=O)c2c(Oc3ccc(OC(F)(F)F)cc3OC)ccc(C(F)(F)F)c2F)c1C [Compound 21, Methyl 4-[[2-fluoro-6-[2-methoxy-4-(trifluoromethoxy)phenoxy]-3-(trifluoromethyl)benzoyl]amino]-3-methyl-pyridine-2-carboxylate]	≥ 1000 nM
COC(=O)c1cc(NC(=O)c2c(Oc3ccc(OC(F)(F)F)cc3OC)ccc(C3CC3)c2C)c(C)cn1 [Compound 2, methyl 4-[[3-cyclopropyl-6-[2-methoxy-4-(trifluoromethoxy)phenoxy]-2-methyl-benzoyl]amino]-5-methyl-pyridine-2-carboxylate]	100 to 500 nM
COC(=O)c1ccc(NC(=O)c2c(Oc3ccc(F)cc3OC)ccc(C(F)(F)F)c2F)cn1 [Compound 10, methyl 5-[[2-fluoro-6-(4-fluoro-2-methoxy-phenoxy)-3-(trifluoromethyl)benzoyl]amino]pyridine-2-carboxylate]	≥ 1000 nM
[2H]C([2H])([2H])Oc1cc(OC(F)(F)F)ccc1Oc1cc(C(F)(F)F)c(F)cc1C(=O)Nc1ccc(C(=O)OC)nc1 [Compound 1, Methyl 5-[[5-fluoro-2-[2-(trideuteriomethoxy)-4-(trifluoromethoxy)phenoxy]-4-(trifluoromethyl)benzoyl]amino]pyridine-2-carboxylate]	≥ 1000 nM
[2H]C([2H])([2H])Oc1cc(OC(F)(F)F)ccc1Oc1ccc(C(F)(F)F)cc1C(=O)Nc1ccnc(C(=O)OC)c1 [Compound 8, methyl 4-[[2-[2-(trideuteriomethoxy)-4-(trifluoromethoxy)phenoxy]-5-(trifluoromethyl)benzoyl]amino]pyridine-2-carboxylate]	500 to 1000 nM
COC(=O)c1cc(NC(=O)c2c(Oc3ccc(OC(F)(F)F)c(F)c3OC)ccc(C(F)(F)F)c2F)cc(C(=O)OC)n1 [Compound 35, dimethyl 4-(2-fluoro-6-(3-fluoro-2-methoxy-4-(trifluoromethoxy)phenoxy)-3-(trifluoromethyl)benzamido)pyridine-2,6-dicarboxylate]	100 to 500 nM
COC(=O)c1nccc(NC(=O)c2c(Oc3ccc(F)c(F)c3C)ccc(C(F)(F)F)c2C)c1C [Compound 19, Methyl 4-[[6-(3,4-difluoro-2-methyl-phenoxy)-2-methyl-3-(trifluoromethyl)benzoyl]amino]-3-methyl-pyridine-2-carboxylate]	≥ 1000 nM
COC(=O)c1cc(NC(=O)c2c(Oc3ccc(OC(F)(F)F)c(F)c3C)ccc(C(F)(F)F)c2C)c(C)cn1 [Compound 16, Methyl 4-[[6-[3-fluoro-2-methyl-4-(trifluoromethoxy)phenoxy]-2-methyl-3-(trifluoromethyl)benzoyl]amino]-5-methyl-pyridine-2-carboxylate]	< 100 nM
COC(=O)c1nccc(NC(=O)c2c(Oc3ccc(OC(F)(F)F)c(F)c3OC)ccc(C(F)(F)F)c2C)c1F [Compound 31, methyl 3-fluoro-4-(6-(3-fluoro-2-methoxy-4-(trifluoromethoxy)phenoxy)-2-methyl-3-(trifluoromethyl)benzamido)picolinate]	≥ 1000 nM
COC(=O)c1nccc(NC(=O)c2c(Oc3ccc(OC(F)(F)F)c(F)c3OC)ccc(C(F)(F)F)c2F)c1F [Compound 30]	100 to 500 nM

— patent US12440481B2, “Esters and carbamates as modulators of sodium channels” (VERTEX PHARMACEUTICALS INCORPORATED, priority 2019, dated 2025)
